Experimental data: patent US10537626B2, “HSP70-derived peptide, pharmaceutical composition for treating or preventing cancer using same, immunity inducer, and method for producing antigen presenting cell” (Cytlimic Inc., priority 2014, dated 2020)
Ends that are not written are not given here.

Tests used:
HLA-A*02:01 molecule = HLA-A*02:01 molecule (Homo sapiens, UniProt P04439, D140Y/D185E/D98H/E176V/E277Q/G131W/G231S/I119V/I121R/I166T/I218V/L300P/L318F/N151K/N90K/P208A/P217A/Q86G/Q94H/R138H/R169H/T345S); experiment: Binding experiment of peptide to HLA-A*02:01 molecule (T2 cells, flow cytometry); conditions: for Binding Experiment Data To A*02:01: T2 cells, 37° C. 4 hours, negative values as printed (apparently log Kd)
Method: T2 cells and purified β2m were added to stepwise dilution series of a peptide whose binding capacity was to be measured, which was then incubated at 37° C. for 4 hours.
Thereafter, the amount of fluorescence per cell was measured using a flow cytometer, and the dissociation constant, Kd value, was calculated using a method as published in a paper by the present inventor (Udaka et al., Immunogenetics, 51, 816-828, 2000).

HLA-A*24:02 molecule = HLA-A*24:02 molecule (Homo sapiens, UniProt P04439, D101N/D140Y/D185E/E176V/E190D/F33S/G103R/G107R/I119L/I121M/I306V/K335N/L105A/L180Q/L300P/N151K/N90K/Q86E/Q94H/R106L/R138H/R89G/T104I/T345S/V100E/W191G/Y123F); experiment: Binding experiment of peptide to HLA-A*24:02 molecule (C1R-A24 cells, flow cytometry); conditions: for Binding Experiment Data To A*24:02: C1R-A24 cells, on ice 4 hours, negative values as printed (apparently log Kd)
Method: The binding capacity of each peptide to the HLA-A*24:02 molecule as the product of HLA-A*24:02 gene was measured using C1R-A24 cells expressing the HLA-A*24:02 molecule (the cells prepared by Prof. Masafumi Takeguchi, Kumamoto University were gifted by Assoc. Prof. Masaki Yasukawa, Ehime University with permission).
First, C1R-A24 cells were exposed to acidic conditions of pH 3.3 for 30 seconds to dissociate and remove endogenous peptides which were originally bound to the HLA-A*24:02 molecule and a light chain, β2m, which was commonly associated with HLA class I molecules. After neutralization, purified β2m was added to the C1R-A24 cells, which was then added to peptide dilution series. The mixtures were each then incubated on ice for 4 hours. The 3-molecule assembly (MHC-pep) consisting of the HLA-A*24:02 molecule, the peptide, and β2 m which had been reassociated during the incubation was stained with a fluorescent labeled monoclonal antibody, 17A12, recognizing the assembly.
Subsequently, the number of MHC-pep's per C1R-A24 cell (which is proportional to the fluorescent intensity of the above fluorescent antibody) was quantitatively measured using a fluorescent cell analyzer, FACScan (Becton, Dickinson and Company). The binding dissociation constant, Kd value, between the HLA-A*24:02 molecule and the peptide was calculated from the average fluorescent intensity per cell using a method as published in a paper (Udaka et al., Immunogenetics, 51, 816-828, 2000) by the present inventor.

HLA-A*02:06 molecule = molecular target: T1, HLA-A*02:06 molecule (Homo sapiens, UniProt P04439, D140Y/D185E/D98H/E176V/E277Q/F33Y/G131W/G231S/I119V/I121R/I166T/I218V/L300P/L318F/N151K/N90K/P208A/P217A/Q86G/Q94H/R138H/R169H/T345S); experiment: Binding experiment of peptide to HLA-A*02:06 molecule (RA2.6 cells, flow cytometry); conditions: for Binding Experiment Data To A*02:06: RA2.6 cells, negative values as printed (apparently log Kd)
T1 construct: expressed in transfected cells; host or cells: RA2.6 cells (mouse TAP-deficient RMAS transfected with HLA-A*02:06 cDNA, Kochi University)
Method: The binding capacity of each peptide to the HLA-A*02:06 molecule as the product of HLA-A*02:06 gene was measured using RA2.6 cells (a cell line newly prepared at Kochi University) in which cDNA of the HLA-A*02:06 gene was introduced into RMAS as a mouse TAP (transporter associated with antigen processing)-deficient cell line.
First, the RA2.6 cells were cultured overnight at 26° C. to accumulate the HLA-A*02:06 molecules unbound to the peptide on the cell surface. Any of peptide dilution series was added thereto for binding at 26° C. for 60 minutes.
Subsequently, the mixture was cultured at 35° C. for 4 hours, resulting in the denaturation of the empty HLA-A*02:06 molecule unbound to the peptide and the loss of its steric structure. A fluorescent labeled monoclonal antibody, BB7.2, specifically recognizing a peptide-bound HLA-A*02:06 molecule, was added thereto, which was then incubated on ice for 20 minutes to stain the cells.

[1] = tested on: CD8T cells from liver cancer patients; experiment: Immunity induction test of peptide (IFN-γ ELISPOT / ELISA, peptide-stimulated dendritic cells cocultured with CD8T cells); assay type: cell-based, human
Method: Monocytes were separated from the peripheral blood collected from a hepatocellular cancer patient according to a leukapheresis method. The separated monocytes were cultured for 6 days under addition of 800 U/ml GM-CSF and 500 U/ml IL-4. In addition, 300 U/ml TNF-α was added to the culture solution, which was then cultured for 4 days to induce mature dendritic cells. Subsequently, HSP70 mRNA was introduced thereinto by an electroporation method and thereby dendritic cells having presented an HSP70-derived antigen peptide were prepared.
Dendritic cells into which 1×10^7, 2×10^7, or 3×10^7 HSP70 mRNAs were introduced (HSP70-dendritic cells) were administered into the thigh of the hepatocellular cancer patient by subcutaneous injection (HSP70 dendritic cell therapy). The subcutaneous administration of the HSP70-dendritic cells prepared by the same method was repeated every 3 weeks. […]
Using CD8 Negative Selection Kit (from Miltenyi Biotec), CD8T cells were separated from the medium and counted. […]
A culture supernatant at day 7 after coculture of T cells with dendritic cells pulsed with each of the above peptides was diluted to the 4 levels of ×1, ×5, ×25, and ×125 to identify the dilution level falling within the limit of measurement using Human IFN-γ ELISA MAX Deluxe Set (from BioLegend Inc.). Thereafter, each sample was measured 3 times at the identified dilution level. […]

Sequence | Binding Experiment Data To A*02:01 (HLA-A*02:01 molecule) | Binding Experiment Data To A*24:02 (HLA-A*24:02 molecule) | Binding Experiment Data To A*02:06 (HLA-A*02:06 molecule) | other results
AMTKDNNLL [SEQ ID NO: 9] | −5.56 | −5.492 | −4.276 | –
AQIHDLVLV [SEQ ID NO: 12] | −6.148 | – | – | –
FYPEEISSM [SEQ ID NO: 3] | – | −7.664 | – | –
GVPQIEVTF [SEQ ID NO: 1] | – | −6.451 | −5.13 | –
ITRARFEEL [SEQ ID NO: 10] | −4.326 | – | −5.58 | –
KLLQDFFNG [SEQ ID NO: 4] | −4.959 | – | −5.268 | –
LLLDVAPLS [SEQ ID NO: 8] | −6.06 | – | −6.171 | –
MVLTKMKEI [SEQ ID NO: 6] | −4.586 | – | −5.533 | –
NLLGRFELS [SEQ ID NO: 11] | −4.56 | – | −5.175 | –
NQPGVLIQV [SEQ ID NO: 14] | −5.91 | – | −6.417 | –
SVTNAVITV [SEQ ID NO: 15] | −4.762 | −4.37 | −5.594 | –
VLVGGSTRI [SEQ ID NO: 5] | −4.86 | −6.173 | −5.07 | –
YAFNMKSAV [SEQ ID NO: 13] | −5.091 | – | −5.021 | –
YGAAVQAAI [SEQ ID NO: 7] | −4.904 | −5.502 | −5.372 | binding to HLA-A*02:01 molecule (in words) (HLA-A*02:01 molecule): strongly binds; binding to HLA-A*24:02 molecule (in words) (HLA-A*24:02 molecule): strongly binds; binding to HLA-A*02:06 molecule (in words) (HLA-A*02:06 molecule): strongly binds; immunogenicity (in words) [1]: high immunogenicity
